Source: patent US20230144901A1, “SORTILIN ANTAGONISTS FOR USE IN THE TREATMENT OF DIABETIC RETINOPATHY” (Insusense ApS, priority 2020, published 2023)
pIC50: −log10 of the molar value.

biological target: T1, hSortilin (Homo sapiens, UniProt Q99523); assay: Neurotensin (NTS) scintillation proximity assay (SPA): displacement of 3H-neurotensin binding to hSortilin; conditions: 150 nM 6his-Sortilin, 5 nM [3H]-Neurotensin; average of at least 4 determinations
T1 sequence (Q99523 78-831): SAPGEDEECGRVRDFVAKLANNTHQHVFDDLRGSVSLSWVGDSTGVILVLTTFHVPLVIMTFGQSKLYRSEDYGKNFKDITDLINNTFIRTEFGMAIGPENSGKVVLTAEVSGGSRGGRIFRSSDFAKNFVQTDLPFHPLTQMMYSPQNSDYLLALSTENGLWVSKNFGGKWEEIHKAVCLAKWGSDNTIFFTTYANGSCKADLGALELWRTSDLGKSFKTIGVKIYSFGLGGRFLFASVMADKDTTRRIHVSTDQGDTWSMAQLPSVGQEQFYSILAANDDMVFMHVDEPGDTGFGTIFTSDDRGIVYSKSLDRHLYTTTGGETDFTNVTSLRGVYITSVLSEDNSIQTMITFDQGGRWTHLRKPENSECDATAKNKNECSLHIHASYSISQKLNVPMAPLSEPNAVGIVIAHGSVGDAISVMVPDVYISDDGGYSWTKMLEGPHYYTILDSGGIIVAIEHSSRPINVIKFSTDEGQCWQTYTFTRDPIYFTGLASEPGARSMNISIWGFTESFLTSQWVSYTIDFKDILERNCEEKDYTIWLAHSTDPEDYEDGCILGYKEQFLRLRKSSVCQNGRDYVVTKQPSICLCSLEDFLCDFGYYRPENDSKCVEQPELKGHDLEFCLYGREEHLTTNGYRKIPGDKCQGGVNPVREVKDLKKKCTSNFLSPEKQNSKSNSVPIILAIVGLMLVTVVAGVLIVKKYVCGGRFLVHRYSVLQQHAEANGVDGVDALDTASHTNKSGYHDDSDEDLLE

Row | Structure (SMILES) | pIC50
1 | O=C(O)c1cc(C(F)(F)F)ccc1C(=O)Nc1ccc2c(n1)CCCC2 [Example 30, 2-[(5,6,7,8-tetrahydroquinolin-2-yl)carbamoyl]-5-(trifluoromethyl)benzoic acid] | 7.00
2 | Cc1cccc(NC(=O)c2ccc(Br)cc2C(=O)O)n1 [Example 1, 5-bromo-2-[(6-methylpyridin-2-yl)carbamoyl]benzoic acid] | 6.15
3 | Cc1cccc(NC(=O)c2ccc([N+](=O)[O-])cc2C(=O)O)n1 [Example 9, 2-[(6-methylpyridin-2-yl)carbamoyl]-5-nitrobenzoic acid] | 5.77
4 | Cc1cccc(NC(=O)c2cc(Br)ccc2C(=O)O)n1 [Example 2, 4-bromo-2-[(6-methylpyridin-2-yl)carbamoyl]benzoic acid] | 4.92
5 | Cc1cccc(NC(=O)c2ccc(Br)cc2C(=O)O)c1 [Example 20, 5-bromo-2-[(3-methylphenyl)carbamoyl]benzoic acid] | 5.28

same assay, conditions: read-out: % inhibition at 50 μM; NTS SPA, compound at 50 μM (footnote *)

Row | Structure (SMILES) | inhibition at 50 µM [%]
6 | Cc1ccc(C(=O)O)c(C(=O)Nc2cccc(C)n2)c1 [Example 12, 4-methyl-2-[(6-methylpyridin-2-yl)carbamoyl]benzoic acid] | 57
7 | O=C(O)c1cc(Br)ccc1C(=O)Nc1ccccc1 [Example 19, 5-bromo-2-(phenylcarbamoyl)benzoic acid] | 69
8 | Cc1cccc(NC(=O)c2cc(Cl)ccc2C(=O)O)n1 [Example 11, 4-chloro-2-[(6-methylpyridin-2-yl)carbamoyl]benzoic acid] | 69
9 | Cc1cccc(NC(=O)c2c(C)cccc2C(=O)O)n1 [Example 16, 3-methyl-2-[(6-methylpyridin-2-yl)carbamoyl]benzoic acid] | 43
10 | Cc1cccc(NC(=O)c2cccc(C)c2C(=O)O)n1 [Example 4, 2-methyl-6-[(6-methylpyridin-2-yl)carbamoyl]benzoic acid] | 5
11 | CCC(C)NC(=O)c1ccc(Br)cc1C(=O)O (stereo not drawn) [Example 17, 5-bromo-2-[(butan-2-yl)carbamoyl]benzoic acid] | 30
12 | Cc1ccc(NC(=O)c2ccc(Br)cc2C(=O)O)cn1 [Example 25, 5-bromo-2-[(6-methylpyridin-3-yl)carbamoyl]benzoic acid] | 70
13 | Cc1cccnc1NC(=O)c1ccc(Br)cc1C(=O)O [Example 24, 5-bromo-2-[(3-methylpyridin-2-yl)carbamoyl]benzoic acid] | 64
14 | CC(C)NC(=O)c1ccc(Br)cc1C(=O)O [Example 18, 5-bromo-2-[(propan-2-yl)carbamoyl]benzoic acid] | 35
15 | Cc1cccc(NC(=O)c2ccccc2C(=O)O)n1 [Example 3, 2-[(6-methylpyridin-2-yl)carbamoyl]benzoic acid] | 15
16 | Cc1cccc(NC(=O)c2ccc(-c3ccccc3)cc2C(=O)O)n1 [Example 10, 4-[(6-methylpyridin-2-yl)carbamoyl]-[1,1′-biphenyl]-3-carboxylic acid] | 2

test system: light sensitive cells of the retina in mice; assay: Diabetic mouse model: flash electroretinography (fERG) before and 8 weeks after STZ induction of diabetes; format: in vivo; conditions: intravitreal 2 μl of a 1 μg/μl solution, versus vehicle control group
Protocol: Flash electroretinography (fERG) was used to measure the electrical response of the light sensitive cells of the retina in mice both prior to streptozocin (STZ) induction of diabetes (baseline) and 8 weeks after induction. Mice were exposed to increasing intensities of light flashes and the resulting electrical responses, measured in amplitude, were recorded. The skilled person will recognise that a cell with a higher measured amplitude is indicative of a healthy cell whilst cells with lower amplitudes is indicative of a damaged cell which is no longer functioning optimally. In the experimental group, the mice were administered with a polyclonal anti-sortilin antibody (2 ul of a 1 μg/μl solution in Dulbecco's Phosphate buffered saline) by intravitrial administration whereas in the control group the mice were administered with the vehicle only (Dulbecco's Phosphate buffered saline). All other variables, such as food intake, diet, exercise levels and exposure to environmental enrichment were kept the same between the two groups.

Row | Structure (SMILES) | reduction in the fERG response (a wave and b wave) 8 weeks after induction compared to the baseline
17 | Cc1cccc(NC(=O)c2ccc(C(F)(F)F)cc2C(=O)O)n1 [Example 8, 2-[(6-methylpyridin-2-yl)carbamoyl]-5-(trifluoromethyl)benzoic acid] | smaller for the experimental group compared to the control group

same assay, conditions: intravitreal, fERG 8 weeks after induction

Row | Structure (SMILES) | protective effect on retinal cells compared with the polyclonal antibody of the first study
18 | Cc1cccc(NC(=O)c2ccc(C(F)(F)F)cc2C(=O)O)n1 [Example 8, 2-[(6-methylpyridin-2-yl)carbamoyl]-5-(trifluoromethyl)benzoic acid] | greater than that of the polyclonal antibody
